In ChEMBL document CHEMBL1671792, “Conformationally constrained farnesoid X receptor (FXR) agonists: heteroaryl replacements of the naphthalene” (Bioorg Med Chem Lett, 2011):
pEC50, pIC50: −log10 of the molar value. ≈ marks a conversion by molar mass, not a printed value. Calls of active or inactive are those of the source. No cut-off for these calls is given here.

Legend:
Mus musculus [1] = assay: Antidiabetic activity in diet-induced obese mouse assessed as serum glucose level at 10 mg/kg, po for 4 weeks (reference value: 316.5 +/-13.2 mg/dL); format: functional
Mus musculus [2] = assay: Antidiabetic activity in diet-induced obese mouse assessed as serum insulin level at 10 mg/kg, po for 4 weeks (reference value: […]); format: functional
Mus musculus [3] = assay: Antidiabetic activity in diet-induced obese mouse assessed as triglyceride level at 10 mg/kg, po for 4 weeks (reference value: 54.4 +/-1.5 mg/dL); format: functional
Mus musculus [4] = assay: Antidiabetic activity in diet-induced obese mouse assessed as NEFA level at 10 mg/kg, po for 4 weeks (reference value: 0.46 +/-0.02 mEq/dL); format: functional
Mus musculus [5] = assay: Antidiabetic activity in diet-induced obese mouse assessed as serum glucose level at 30 mg/kg, po for 4 weeks (reference value: 316.5 +/-13.2 mg/dL); format: functional
Mus musculus [6] = assay: Antidiabetic activity in diet-induced obese mouse assessed as serum insulin level at 30 mg/kg, po for 4 weeks (reference value: […]); format: functional
Mus musculus [7] = assay: Antidiabetic activity in diet-induced obese mouse assessed as NEFA level at 30 mg/kg, po for 4 weeks (reference value: 0.46 +/-0.02 mEq/dL); format: functional
Mus musculus [8] = assay: Antidiabetic activity in diet-induced obese mouse assessed as glycerol level at 30 mg/kg, po for 4 weeks (reference value: 11.0 +/-1.3 mg/dL); format: functional
Mus musculus [9] = assay: Antidiabetic activity in diet-induced obese mouse assessed as beta-hydroxybutyrate level at 30 mg/kg, po for 4 weeks (reference value: 1.7 +/-0.1 mg/dL); format: functional
Mus musculus [10] = assay: Antidiabetic activity in diet-induced obese mouse assessed as serum glucose level at 100 mg/kg, po for 4 weeks (reference value: 316.5 +/-13.2 mg/dL); format: functional
Mus musculus [11] = assay: Antidiabetic activity in diet-induced obese mouse assessed as total cholesterol level at 100 mg/kg, po for 4 weeks (reference value: 140.0 +/-2.8 mg/dL); format: functional
Mus musculus [12] = assay: Antidiabetic activity in diet-induced obese mouse assessed as NEFA level at 100 mg/kg, po for 4 weeks (reference value: 0.46 +/-0.02 mEq/dL); format: functional
Mus musculus [13] = assay: Antidiabetic activity in diet-induced obese mouse assessed as glycerol level at 100 mg/kg, po for 4 weeks (reference value: 11.0 +/-1.3 mg/dL); format: functional
Mus musculus [14] = assay: Antidiabetic activity in diet-induced obese mouse assessed as beta-hydroxybutyrate level at 100 mg/kg, po for 4 weeks (reference value: 1.7 +/-0.1 mg/dL); format: functional
[15] = target: T1, Bile acid receptor (Homo sapiens) (UniProt Q96RI1); assay: Agonist activity at human FXR LBD assessed as SRC1 peptide recruitment by FRET assay relative to GW 4064; format: functional
T1 sequence (whole entry): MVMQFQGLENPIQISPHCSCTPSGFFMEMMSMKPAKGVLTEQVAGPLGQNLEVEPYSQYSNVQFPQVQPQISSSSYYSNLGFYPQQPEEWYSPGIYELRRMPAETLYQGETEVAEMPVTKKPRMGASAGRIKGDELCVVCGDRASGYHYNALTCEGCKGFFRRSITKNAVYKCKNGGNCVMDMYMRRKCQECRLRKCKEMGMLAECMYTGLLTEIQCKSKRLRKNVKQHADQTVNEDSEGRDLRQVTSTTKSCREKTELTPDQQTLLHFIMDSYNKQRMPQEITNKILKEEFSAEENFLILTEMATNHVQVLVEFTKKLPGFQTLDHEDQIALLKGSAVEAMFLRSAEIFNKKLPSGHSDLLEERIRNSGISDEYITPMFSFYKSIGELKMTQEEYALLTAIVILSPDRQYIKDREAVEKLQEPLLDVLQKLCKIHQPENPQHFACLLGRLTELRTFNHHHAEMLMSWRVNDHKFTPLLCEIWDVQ

Bile acid receptor = target: T2, Bile acid receptor (Homo sapiens, UniProt Q96RI1); assay: Agonist activity at human FXR LBD iexpressed in monkey CV-1 cells assessed as transactivation of luciferase reporter gene expression; format: functional, cell-based
T2 sequence (Q96RI1 whole entry): T1 sequence (whole entry)

[16] = target: T1, Bile acid receptor (Homo sapiens); assay: Agonist activity at human FXR LBD iexpressed in monkey CV-1 cells assessed as transactivation of luciferase reporter gene expression relative to GW 4064; format: functional, cell-based; parameters: concentration or dose not given beside the values
[17] = Half life in iv dosed mouse; format: ADME, organism-based; conditions: in vivo
[18] = Half life in iv dosed cynomolgus monkey; format: ADME, organism-based, Macaca fascicularis; conditions: in vivo
[19] = Clearance in iv dosed mouse; format: ADME, organism-based; conditions: in vivo
[20] = Clearance in iv dosed Beagle dog; format: ADME, organism-based, Canis lupus familiaris; conditions: in vivo
[21] = Clearance in iv dosed cynomolgus monkey; format: ADME, organism-based, Macaca fascicularis; conditions: in vivo
[22] = Volume of distribution at steady state in iv dosed mouse; format: ADME, organism-based; conditions: in vivo, read-out: Vdss
[23] = Volume of distribution at steady state in iv dosed Beagle dog; format: ADME, organism-based, Canis lupus familiaris; conditions: in vivo, read-out: Vdss
[24] = Volume of distribution at steady state in iv dosed cynomolgus monkey; format: ADME, organism-based, Macaca fascicularis; conditions: in vivo, read-out: Vdss
[25] = Oral bioavailability in rat; format: ADME, organism-based; conditions: in vivo
[26] = Oral bioavailability in Beagle dog; format: ADME, organism-based, Canis lupus familiaris; conditions: in vivo
Mus musculus [27] = assay: Dose normalized AUC in orally dosed mouse; format: ADME, organism-based; conditions: in vivo, po
Rattus norvegicus = assay: Dose normalized AUC in orally dosed rat; format: ADME, organism-based; conditions: in vivo, po
Canis familiaris = assay: Dose normalized AUC in orally dosed Beagle dog; format: ADME, organism-based, Canis lupus familiaris; conditions: in vivo, po
Cytochrome P450 2C9 = Cytochrome P450 2C9 (Homo sapiens, UniProt P11712); assay: Inhibition of CYP2C9 in human liver microsome; format: microsomes
Sequence of Cytochrome P450 2C9 (P11712 whole entry): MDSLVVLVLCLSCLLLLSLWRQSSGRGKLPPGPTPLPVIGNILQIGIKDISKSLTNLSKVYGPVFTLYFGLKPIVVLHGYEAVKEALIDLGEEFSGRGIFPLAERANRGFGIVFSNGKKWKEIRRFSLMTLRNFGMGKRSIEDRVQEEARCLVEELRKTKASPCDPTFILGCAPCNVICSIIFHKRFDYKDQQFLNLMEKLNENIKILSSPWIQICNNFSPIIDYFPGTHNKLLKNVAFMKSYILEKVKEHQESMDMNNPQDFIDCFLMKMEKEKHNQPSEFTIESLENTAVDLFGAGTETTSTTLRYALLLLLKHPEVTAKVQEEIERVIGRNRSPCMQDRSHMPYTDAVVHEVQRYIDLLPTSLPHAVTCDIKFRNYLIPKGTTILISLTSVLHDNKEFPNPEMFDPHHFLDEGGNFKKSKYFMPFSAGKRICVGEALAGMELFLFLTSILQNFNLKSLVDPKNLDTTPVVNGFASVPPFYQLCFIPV

Cytochrome P450 2C19 = Cytochrome P450 2C19 (Homo sapiens, UniProt P33261); assay: Inhibition of CYP2C19 in human liver microsome; format: microsomes
Sequence of Cytochrome P450 2C19 (P33261 whole entry): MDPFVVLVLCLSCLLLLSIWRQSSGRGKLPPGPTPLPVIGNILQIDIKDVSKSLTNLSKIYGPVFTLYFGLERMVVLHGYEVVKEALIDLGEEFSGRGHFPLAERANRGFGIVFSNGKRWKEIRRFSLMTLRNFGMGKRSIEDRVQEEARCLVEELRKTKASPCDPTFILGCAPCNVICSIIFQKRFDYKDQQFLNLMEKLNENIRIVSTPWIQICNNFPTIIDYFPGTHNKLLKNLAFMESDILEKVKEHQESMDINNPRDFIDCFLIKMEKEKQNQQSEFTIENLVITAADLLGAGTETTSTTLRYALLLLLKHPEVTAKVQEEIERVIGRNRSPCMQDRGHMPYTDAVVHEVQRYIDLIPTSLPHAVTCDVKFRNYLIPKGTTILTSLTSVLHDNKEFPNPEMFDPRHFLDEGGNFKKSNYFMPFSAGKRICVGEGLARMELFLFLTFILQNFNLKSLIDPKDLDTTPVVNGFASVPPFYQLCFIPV

Cytochrome P450 2D6 = Cytochrome P450 2D6 (Homo sapiens, UniProt P10635); assay: Inhibition of CYP2D6 in human liver microsome; format: microsomes
Sequence of Cytochrome P450 2D6 (P10635 whole entry): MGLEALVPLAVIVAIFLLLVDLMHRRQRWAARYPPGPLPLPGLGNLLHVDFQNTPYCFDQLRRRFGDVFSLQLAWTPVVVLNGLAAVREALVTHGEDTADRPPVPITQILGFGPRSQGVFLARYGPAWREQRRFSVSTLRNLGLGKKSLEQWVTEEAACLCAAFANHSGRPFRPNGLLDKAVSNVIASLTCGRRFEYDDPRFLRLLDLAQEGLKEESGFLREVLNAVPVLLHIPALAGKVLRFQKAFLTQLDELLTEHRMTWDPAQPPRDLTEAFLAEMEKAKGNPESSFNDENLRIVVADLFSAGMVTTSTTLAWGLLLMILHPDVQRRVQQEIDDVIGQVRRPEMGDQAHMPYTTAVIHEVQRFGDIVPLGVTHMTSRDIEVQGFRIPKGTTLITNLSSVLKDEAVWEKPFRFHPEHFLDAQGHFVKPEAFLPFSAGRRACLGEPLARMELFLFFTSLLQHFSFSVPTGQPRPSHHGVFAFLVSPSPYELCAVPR

Homo sapiens [28] = species on record: Homo sapiens; assay: Selectivity ratio of EC50 for human FXR to EC50 for human PPARalpha
Homo sapiens [29] = species on record: Homo sapiens; assay: Selectivity ratio of EC50 for human FXR to EC50 for human PPARgamma
Homo sapiens [30] = species on record: Homo sapiens; assay: Selectivity ratio of EC50 for human FXR to EC50 for human RORalpha
[31] = Permeability across MDCK cell membrane; format: ADME, cell-based, Canis lupus familiaris; conditions: dog
[32] = Solubility of compound in fasted state-simulated intestinal fluid at pH 6.5; format: physicochemical; conditions: simulated gi fluid
[33] = target: T1, Bile acid receptor (Homo sapiens); assay: Binding affinity to human FXR by X-ray crystallography
Mus musculus [34] = assay: Antidiabetic activity in diet-induced obese mouse assessed as change in body weight at 10 mg/kg, po for 4 weeks measured after 2 weeks (reference value: 30.3+/-0.8 g); format: functional
Mus musculus [35] = assay: Antidiabetic activity in diet-induced obese mouse assessed as change in body weight at 10 mg/kg, po for 4 weeks measured after 4 weeks (reference value: 30.3+/-0.8 g); format: functional
Mus musculus [36] = assay: Antidiabetic activity in diet-induced obese mouse assessed as change in body weight at 100 mg/kg, po for 4 weeks measured after 2 weeks (reference value: 29.1+/-0.8 g); format: functional
Mus musculus [37] = assay: Antidiabetic activity in diet-induced obese mouse assessed as change in body weight at 100 mg/kg, po for 4 weeks measured after 3 weeks (reference value: 29.1+/-0.8 g); format: functional

CC(C)c1onc(-c2c(Cl)cccc2Cl)c1COc1ccc(-c2ccc3nc(C(=O)O)ccc3c2)cc1
Activity (Mus musculus [1]): 313 mg/dL
Activity (Mus musculus [2]): 0.63 ng/mL
Activity (Mus musculus [3]): 55.8 mg/dL
Activity (Mus musculus [4]): 0.53 mEq/dL
Activity (Mus musculus [5]): 282.2 mg/dL
Activity (Mus musculus [6]): 0.58 ng/mL
Activity (Mus musculus [7]): 0.52 mEq/dL
Activity (Mus musculus [8]): 10 mg/dL
Activity (Mus musculus [9]): 1.8 mg/dL
Activity (Mus musculus [10]): 241.4 mg/dL
Activity (Mus musculus [11]): 87.9 mg/dL
Activity (Mus musculus [12]): 0.65 mEq/dL
Activity (Mus musculus [13]): 9.7 mg/dL
Activity (Mus musculus [14]): 3.3 mg/dL
Activity [15]: 105%
pEC50 (Bile acid receptor): 7.30
Activity [16]: 102%
half-life [17]: 1.4 h
half-life [18]: 2 h
clearance [19]: 23 mL/min/kg
clearance [20]: 4.4 mL/min/kg
clearance [21]: 3.1 mL/min/kg
Vd [22]: 1.6 L/kg
Vd [23]: 0.31 L/kg
Vd [24]: 0.15 L/kg
bioavailability [25]: 23%
bioavailability [26]: 23%
AUC (Mus musculus [27]): 310 ng·kg·h/mg/mL
AUC (Rattus norvegicus): 130 ng·kg·h/mg/mL
AUC (Canis familiaris): 1260 ng·kg·h/mg/mL
pIC50 (Cytochrome P450 2C9): 5.36
pIC50 (Cytochrome P450 2C19): < 4.48
pIC50 (Cytochrome P450 2D6): < 4.48
Ratio EC50 (Homo sapiens [28]): 100
Ratio EC50 (Homo sapiens [29]): 100
Ratio EC50 (Homo sapiens [30]): 100
Papp [31]: 18.3 ×10⁻⁶ cm/s
solubility [32]: 1 ng/mL (≈ 1.87 nM)
Activity [33]: Active
Activity (Mus musculus [34]): 29.3 g
Activity (Mus musculus [35]): 29 g
Activity (Mus musculus [36]): 23.2 g
Activity (Mus musculus [37]): 24.1 g
